Source: patent US12344852B2, “Control of phenotype in plants” (GREENVENUS, LLC, priority 2016, dated 2025)

Test system: IP:ChsA RNAi (ID164) transgenic Petunia plants
Experiment: Flower color change in IP:ChsA RNAi (ID164) transgenic petunia after ligand spray
Format: in vivo, Petunia hybrida variety V26
Details: for time to change flower color from dark purple to variegate: one application
Text: DNA construct ID164 (LB-IP:ChsA RNAi+35S:AP+CsVMV:NptII-RB) (SEQ ID NO:55) containing both the inducible promoter (IP) composed of 5 GAL4 regulatory elements (GAL4-RE) placed upstream of the minimal CaMV-35S promoter and the multidomain activator (AP) protein gene (VGE(E68V/V184I/Y204E) under the control of CaMV-35S promoter is shown in FIG. 20B. ID164 (SEQ ID NO:55) was used to transform wild type (wt) Petunia hybrid variety V26. The chalcone synthase hairpin transcript will not be express until the activator ligand (methoxyfenozide; Mtf) is provided to mobilize the activator proteins for binding to the GAL4-RE and switching the inducible promoter FS on. Transgene copy number was assessed for 56 TO transgenic plants by Tagman assay. 84% were low copies (two copies and below), 12.5% were high copy (three copies and above) and, few plants were nulls. Before ligand application most (98%) plants were flowering as dark purple color. Plants were divided in five groups, each group being treated differently. Treatment occurred every other day at a rate of 30 ml per plant. Treatment is sprayed on plants (leaves and flowers). Water is used as a mock treatment while INTREPID® 2F insecticide (Mtf being the active ingredient) is used as a ligand treatment. Group one was mock treated. Group two was treated with 2.5 uM Mtf in INTREPID® 2F insecticide form. Group three was treated with 1 mM Mtf (highest recommended dose on ornamental plants for INTREPID® 2F). Group four was treated with 2 mM Mtf and group five treated with 5 mM Mtf. […] When increasing the ligand concentration to 1 mM, change in flower color, dark purple to variegate, was observed faster (7 days post-treatment) on 50% of plants as shown in FIG. 23. With 2 mM and 5 mM ligand, one application (2 days post-treatment) was sufficient to change flower color from dark purple to variegate as shown in FIG. 24 and FIG. 25, respectively. Decrease in ChsA gene expression level in treated plants compared to their higher level before ligand treatment correlates with their change in flower color as shown in FIG. 21.

Q: What does the source list for `COc1cccc(C(=O)NN(C(=O)c2cc(C)cc(C)c2)C(C)(C)C)c1C` [methoxyfenozide, 3-methoxy-2-methylbenzoic acid 2-(3,5-dimethylbenzoyl)-2-(1,1-dimethylethyl)hydrazide]?
A: time to flower color change from dark purple to light purple (2.5 uM): 10 days post-treatment; plants showing flower color change from dark purple to light purple (2.5 uM, sprayed every other day, 30 ml per plant, INTREPID 2F form): 50%; plants showing change in flower color, dark purple to variegate (1 mM): 50%; time to change in flower color, dark purple to variegate (1 mM): 7 days post-treatment; time to change flower color from dark purple to variegate (2 mM): 2 days post-treatment; time to change flower color from dark purple to variegate (5 mM): 2 days post-treatment
